According to patent US20220220100A1 (SOLUTIA CANADA INC., priority 2019, published 2022):

Assays:
Assay type in all cases: physicochemical
[1] = Oxidation potential of ring-closed and ring-open isomers; conditions: no unit printed in table (V relative to Ag/AgCl)
[2] = Solubility in Rhodiasolv IRIS solvent; conditions: Rhodiasolv IRIS (dimethyl-2-methyl glutarate); wt %
Text: A compound with greater solubility allows for a formulation or material with a greater concentration of coloured molecule to be incorporated into a composition. This may allow for increasing the contrast ratio for a compound with a lesser absorbance at PSS. Examples of solubilizing groups for the compound include alkoxy, ether, ester or siloxy groups. In various embodiments, compounds may be soluble in the solvent component at room temperature at about 6 wt %, 7 wt %, 8 wt %, 9 wt %, 10 wt % or greater for testing to determine whether a compound has application as an exterior glazing or optical filter. If the solubility of a compound in the solvent component is too low, then insufficient darkening may be achieved in the ring-closed configuration, depending on conditions of use for the compound.
Chromophore solutions in Rhodiasolv IRIS were prepared at 1 to 10 wt % loading. Solutions were prepared in a glovebox by charging the chromophore and Rhodiasolv IRIS to a trace-clean vial, and the solution was stirred on a hotplate at 90° C. for 2-24 hours. After cooling, the chromophore solution was injected into glass weathering cells and the fill and vent ports were sealed with a thin disc of Kalrez (FFKM Perfluorinated Elastomer) and secured with a clamp and set-screw. The weathering cells were filled and sealed inside the glove box.

[3] = Photostability: xenon arc weathering of chromophore solutions, LCMS analysis; conditions: for Ketone (%) / Minus-2HF (%) / Minus-HF (%) / Sulfone (%) / Chromophore Remaining (%): xenon arc, 82° C. bp; for Ketone (%) / Minus-2HF (%) / Minus-HF (%) / Sulfone (%): linearly interpolated to 0.5 MJ/m2 @ 340 nm; for Chromophore Remaining (%): linearly interpolated to 0.5 MJ/m2 @ 340 nm of exposure energy; for Photostability (in words): weathering experiments
How it was run: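 Chromophores were dissolved at 1 to 10 wt % in Rhodiasolv IRIS at 90° C, then sealed under glovebox conditions in glass cells laminated with 400 nm UV-cutoff PVB. The cells were weathered continuously in a xenon arc chamber with no dark or spray cycles. Solutions were then diluted in acetonitrile and analysed by reverse-phase LC-MS.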

[4] = 10 wt %, interpolated to 0.5 MJ/m^2 of energy exposure at 340 nm
[5] = 3 wt %, interpolated to 0.5 MJ/m^2 of energy exposure at 340 nm
[6] = 1 wt %, interpolated to 0.5 MJ/m^2 of energy exposure at 340 nm

CCOC(=O)CCCOc1cc2oc(-c3ccc(C(C)(C)C)cc3)c(C3=C(c4cc(-c5cc(C(C)(C)C)cs5)sc4-c4cc(C(C)(C)C)cs4)C(F)(F)C(F)(F)C3(F)F)c2cc1OCCCC(=O)OCC [Chromophore S386, diethyl 4,4′-((2-(4-(tert-butyl)phenyl)-3-(2-(4,4″-di-tert-butyl-[2,2′:5′,2″-terthiophen]-3′-yl)-3,3,4,4,5,5-hexafluorocyclopent-1-en-1-yl)benzofuran-5,6-diyl)bis(oxy))dibutanoate]
RC [O] (oxidation potential of ring-closed isomer) [1]: 0.99
RO [O] (oxidation potential of ring-open isomer) [1]: 1.4
Solubility in Rhodiasolv IRIS [2]: >10%
Formation of the Minus-HF degradation product (in words) [3]: prevents the Minus-HF product
Ketone (%) ([3]; 10 wt % in Rhodiasolv IRIS): 0.0%
Minus-2HF (%) ([3]; 10 wt % in Rhodiasolv IRIS): 0.0%
Minus-HF (%) ([3]; 10 wt % in Rhodiasolv IRIS): 0.0%
Sulfone (%) ([3]; 10 wt % in Rhodiasolv IRIS): 0.0%
Chromophore Remaining (%) ([3]; 10 wt % in Rhodiasolv IRIS): 98.6%
Ratio of chromophore remaining relative to S340 [3, 4]: 1.08
Photostability (in words) [3]: high photostability

CCOC(=O)CCCOc1cc2oc(-c3ccc(C(C)(C)C)cc3)c(C3=C(c4cc(-c5cc6c(s5)C(C)(C)CCC6(C)C)sc4-c4cc5c(s4)C(C)(C)CCC5(C)C)C(F)(F)C(F)(F)C3(F)F)c2cc1OCCCC(=O)OCC [Chromophore S387, ethyl 4-[(3-{2-[2,5-bis(4,4,7,7-tetramethyl-4,5,6,7-tetrahydro-1-benzothiophen-2-yl)thiophen-3-yl]-3,3,4,4,5,5-hexafluorocyclopent-1-en-1-yl}-2-(4-tert-butylphenyl)-6-(4-ethoxy-4-oxobutoxy)-1-benzofuran-5-yl)oxy]butanoate]
RC [O] (oxidation potential of ring-closed isomer) [1]: 0.92
RO [O] (oxidation potential of ring-open isomer) [1]: 1.29
Solubility in Rhodiasolv IRIS [2]: >10%
Formation of the Minus-HF degradation product (in words) [3]: prevents the Minus-HF product
Ketone (%) ([3]; 10 wt % in Rhodiasolv IRIS): 0.0%
Minus-2HF (%) ([3]; 10 wt % in Rhodiasolv IRIS): 0.0%
Minus-HF (%) ([3]; 10 wt % in Rhodiasolv IRIS): 0.0%
Sulfone (%) ([3]; 10 wt % in Rhodiasolv IRIS): 0.0%
Chromophore Remaining (%) ([3]; 10 wt % in Rhodiasolv IRIS): 100.0%
Ratio of chromophore remaining relative to S340 [3, 4]: 1.10
Photostability (in words) [3]: high photostability

COCCCOc1cc2oc(-c3ccc(C(C)(C)C)cc3)c(C3=C(c4cc(-c5cc6c(s5)C(C)(C)CCC6(C)C)sc4-c4cc5c(s4)C(C)(C)CCC5(C)C)C(F)(F)C(F)(F)C3(F)F)c2cc1OCCCOC [Chromophore S388, 3-(2-(2,5-bis(4,4,7,7-tetramethyl-4,5,6,7-tetrahydrobenzo[b]thiophen-2-yl)thiophen-3-yl)-3,3,4,4,5,5-hexafluorocyclopent-1-en-1-yl)-2-(4-(tert-butyl)phenyl)-5,6-bis(3-methoxypropoxy)benzofuran]
RC [O] (oxidation potential of ring-closed isomer) [1]: 0.89
RO [O] (oxidation potential of ring-open isomer) [1]: 1.28
Solubility in Rhodiasolv IRIS [2]: >10%
Formation of the Minus-HF degradation product (in words) [3]: prevents the Minus-HF product
Ketone (%) ([3]; 10 wt % in Rhodiasolv IRIS): 0.2%
Minus-2HF (%) ([3]; 10 wt % in Rhodiasolv IRIS): 0.0%
Minus-HF (%) ([3]; 10 wt % in Rhodiasolv IRIS): 0.0%
Sulfone (%) ([3]; 10 wt % in Rhodiasolv IRIS): 0.4%
Chromophore Remaining (%) ([3]; 10 wt % in Rhodiasolv IRIS): 97.7%
Ratio of chromophore remaining relative to S340 [3, 4]: 1.07
Photostability (in words) [3]: high photostability

CC(C)(C)c1ccc(-c2oc3cc(OCCN4CCOC4=O)c(OCCN4CCOC4=O)cc3c2C2=C(c3cc(-c4cc5c(s4)C(C)(C)CCC5(C)C)sc3-c3cc4c(s3)C(C)(C)CCC4(C)C)C(F)(F)C(F)(F)C2(F)F)cc1 [Chromophore S390, 3,3′-(((3-(2-(2,5-bis(4,4,7,7-tetramethyl-4,5,6,7-tetrahydrobenzo[b]thiophen-2-yl)thiophen-3-yl)-3,3,4,4,5,5-hexafluorocyclopent-1-en-1-yl)-2-(4-(tert-butyl)phenyl)benzofuran-5,6-diyl)bis(oxy))bis(ethane-2,1-diyl))bis(oxazolidin-2-one)]
RC [O] (oxidation potential of ring-closed isomer) [1]: 0.93
RO [O] (oxidation potential of ring-open isomer) [1]: 1.29
Solubility in Rhodiasolv IRIS [2]: >10%
Ketone (%) ([3]; 10 wt % in Rhodiasolv IRIS): 0.0%
Minus-2HF (%) ([3]; 10 wt % in Rhodiasolv IRIS): 0.0%
Minus-HF (%) ([3]; 10 wt % in Rhodiasolv IRIS): 0.0%
Sulfone (%) ([3]; 10 wt % in Rhodiasolv IRIS): 0.0%
Chromophore Remaining (%) ([3]; 10 wt % in Rhodiasolv IRIS): 98.8%
Ratio of chromophore remaining relative to S340 [3, 4]: 1.08
Photostability (in words) [3]: high photostability

CC(=O)Oc1cc2oc(-c3ccc(C(C)(C)C)cc3)c(C3=C(c4cc(-c5cc(C(C)(C)C)cs5)sc4-c4cc(C(C)(C)C)cs4)C(F)(F)C(F)(F)C3(F)F)c2cc1OC(C)=O [Chromophore S396, 2-(4-(tert-butyl)phenyl)-3-(2-(4,4″-di-tert-butyl-[2,2′:5′,2″-terthiophen]-3′-yl)-3,3,4,4,5,5-hexafluorocyclopent-1-en-1-yl)benzofuran-5,6-diyl diacetate]
RC [O] (oxidation potential of ring-closed isomer) [1]: 1.18
RO [O] (oxidation potential of ring-open isomer) [1]: 1.48
Solubility in Rhodiasolv IRIS [2]: >3%
Ketone (%) ([3]; 3 wt % in Rhodiasolv IRIS): 1.0%
Minus-2HF (%) ([3]; 3 wt % in Rhodiasolv IRIS): 0.0%
Minus-HF (%) ([3]; 3 wt % in Rhodiasolv IRIS): 0.0%
Sulfone (%) ([3]; 3 wt % in Rhodiasolv IRIS): 0.0%
Chromophore Remaining (%) ([3]; 3 wt % in Rhodiasolv IRIS): 97.9%
Ratio of chromophore remaining relative to S340 [3, 5]: 1.07
Photostability (in words) [3]: high photostability

COc1ccc2oc(-c3ccc(C(C)(C)C)cc3)c(C3=C(c4cc(-c5cc6c(s5)C(C)(C)CCC6(C)C)sc4-c4cc5c(s4)C(C)(C)CCC5(C)C)C(F)(F)C(F)(F)C3(F)F)c2c1 [Chromophore S400]
RC [O] (oxidation potential of ring-closed isomer) [1]: 1.01
RO [O] (oxidation potential of ring-open isomer) [1]: 1.29
Solubility in Rhodiasolv IRIS [2]: >3%
Ketone (%) ([3]; 3 wt % in Rhodiasolv IRIS): 0.8%
Minus-2HF (%) ([3]; 3 wt % in Rhodiasolv IRIS): 1.4%
Minus-HF (%) ([3]; 3 wt % in Rhodiasolv IRIS): 0.0%
Sulfone (%) ([3]; 3 wt % in Rhodiasolv IRIS): 0.0%
Chromophore Remaining (%) ([3]; 3 wt % in Rhodiasolv IRIS): 96.7%
Ratio of chromophore remaining relative to S340 [3, 5]: 1.06
Photostability (in words) [3]: high photostability

COc1cc2oc(-c3ccc(C(C)(C)C)cc3)c(C3=C(c4cc(-c5cc6c(s5)C(C)(C)CCCC6(C)C)sc4-c4cc5c(s4)C(C)(C)CCCC5(C)C)C(F)(F)C(F)(F)C3(F)F)c2cc1OC [Chromophore S405]
RC [O] (oxidation potential of ring-closed isomer) [1]: 0.91
RO [O] (oxidation potential of ring-open isomer) [1]: 1.28
Solubility in Rhodiasolv IRIS [2]: >1%
Ketone (%) ([3]; 1 wt % in Rhodiasolv IRIS): 2.9%
Minus-2HF (%) ([3]; 1 wt % in Rhodiasolv IRIS): 0.0%
Minus-HF (%) ([3]; 1 wt % in Rhodiasolv IRIS): 0.0%
Sulfone (%) ([3]; 1 wt % in Rhodiasolv IRIS): 0.0%
Chromophore Remaining (%) ([3]; 1 wt % in Rhodiasolv IRIS): 97.1%
Ratio of chromophore remaining relative to S340 [3, 6]: 1.07
Sum of degradation product percentages relative to the sum of degradation product percentages for S340 [3, 6]: 0.33
Photostability (in words) [3]: high photostability
